In one data set the test system is corneocytes. The settings on record: C. Huber et al, Arch. Derm. Res. 257, 293-297, 1977; cited from earlier work.
The conditions of data set [1]: in vitro human skin.
Source text: Excised human skin samples are obtained at autopsy and maintained under sterile conditions until used. […] The diffusion cell is composed of two compartments: the lower chamber is made of Plexiglass and the top is made of Teflon. The skin sample is mounted with the stratum corneum side exposed to the air and held on to the Teflon top with a rubber 0-ring; a tight seal between the two compartments is achieved by tightening the set screws. The cell has an effective diffusional area of 5.08 cm^2 and the dermis side of the skin is constantly bathed by filling the receptor compartment with 40 ml of isotonic saline. Adequate mixing of the receptor phase is accomplished with a magnet driven Teflon-coated stir bar moved by appropriate motor means located below the cell bath. The whole diffusion cell assembly is immersed in a water bath maintained at 30° C. using a circulating water bath. […] At hourly intervals over a period of seven hours, a one milliliter sample of the receptor fluid is withdrawn and analyzed for radioactive content by liquid scintillation counting means (Packard Tri-Carb model No. 460). […]
At the end of the seven hour period the skin sample is removed from the diffusion cell, trimmed of excess skin and glued with cyanoacrylate glue to a glass plate. […] Ten successive adhesive tape strippings are then taken and the salicylic acid content per strip determined. […]

Molecules are shown by their SMILES.

Consider `O=C(O)c1ccccc1O` [Salicylic acid], for which the “reduction in intercellular cohesion of the corneocytes (in words)” value in the data set with corneocytes is on record as “causes a reduction in intercellular cohesion of the corneocytes”.

Consider `CCCCCCCCCCCCOS(=O)(=O)[O-].[Na+]` [surfactant D, sodium lauryl sulfate], for which, in data set [1], the “deposition of salicylic acid in the stratum corneum (in words)” value is “marked decrease in deposition of salicylic acid in the stratum corneum” and the “rate of penetration of salicylic acid (in words)” value is given as “marked increase in the penetration rate through the skin”.

Source of the values: patent US4800197A, “Anti-acne composition” (Richardson-Vicks Inc., priority 1987, dated 1989).
